System: HCV 1b genotype
Experiment: HCV Replicon assay (HCV-neo replicon cells, wild-type)
Assay type: cell-based
Conditions: HCV 1b genotype replicon
Experimental: An HCV Replicon assay was utilized in the present disclosure, and was prepared, conducted and validated as described in commonly owned PCT/US2006/022197 and in O'Boyle et. al. Antimicrob Agents Chemother. 2005 April; 49 (4):1346-53. Assay methods incorporating luciferase reporters have also been used as described (Apath.com).
HCV-neo replicon cells and replicon cells containing mutations in the NS5A region were used to test the currently described family of compounds. The compounds were determined to have more than 10-fold less inhibitory activity on cells containing mutations than wild-type cells. Thus, the compounds of the present disclosure can be effective in inhibiting the function of the HCV NS5A protein and are understood to be as effective in combinations as previously described in application PCT/US2006/022197 and commonly owned WO/O4014852. Further, the compounds of the present disclosure can be effective against the HCV 1b genotype. It should also be understood that the compounds of the present disclosure can inhibit multiple genotypes of HCV. […] In one embodiment, compounds of the present disclosure are inhibitory versus 1a, 1b, 2a, 2b, 3a, 4a, and 5a genotypes.

[1] = Hepatitis C virus, class symbols

Row | Compound | EC50 [1] [nM] | other results
1 | O=C(c1ccoc1)N1CCC[C@H]1c1nc2cc(C#Cc3ccc4[nH]c([C@@H]5CCCN5C(=O)c5ccoc5)nc4c3)ccc2[nH]1 [Example M13, 5,5′-(1,2-ethynediyl)bis(2-((2S)-1-(3-furoyl)-2-pyrrolidinyl)-1H-benzimidazole)] | < 4.57 | 
2 | CC(=O)N1CCC[C@H]1c1nc2ccc(C#Cc3ccc4[nH]c([C@@H]5CCCN5C(=O)c5ccccc5)nc4c3)cc2[nH]1 [Example M54.18, 5-((2-((2S)-1-acetyl-2-pyrrolidinyl)-1H-benzimidazol-6-yl)ethynyl)-2-((2S)-1-benzoyl-2-pyrrolidinyl)-1H-benzimidazole] | 4.57 to 99 | 
3 | O=C(c1ccccc1)N1CCC[C@H]1c1nc2cc(C#Cc3ccc4nc([C@@H]5CCCN5C(=O)c5ccccc5)[nH]c4c3)ccc2[nH]1 [Example M6, 2-((2S)-1-benzoyl-2-pyrrolidinyl)-5-((2-((2S)-1-benzoyl-2-pyrrolidinyl)-1H-benzimidazol-6-yl)ethynyl)-1H-benzimidazole] | 4.57 to 99 | 
4 | CCc1ccccc1C(=O)N1CCC[C@H]1c1nc2ccc(C#Cc3ccc4[nH]c([C@@H]5CCCN5C(=O)[C@H]5CCCO5)nc4c3)cc2[nH]1 [Example M54.2] |  | EC50 (class symbols): 100 to 999 nM
5 | Cn1cccc1C(=O)N1CCC[C@H]1c1nc2ccc(C#Cc3ccc4[nH]c([C@@H]5CCCN5C(=O)[C@H]5CCCO5)nc4c3)cc2[nH]1 [Example M54.6, 5-((2-((2S)-1-((1-methyl-1H-pyrrol-2-yl)carbonyl)-2-pyrrolidinyl)-1H-benzimidazol-6-yl)ethynyl)-2-((2S)-1-((2R)-tetrahydro-2-furanylcarbonyl)-2-pyrrolidinyl)-1H-benzimidazole] | 4.57 to 99 | 
6 | CC(C)(C)OC[C@H](NC(=O)OCc1ccccc1)c1nc2cc(CCc3ccc4nc([C@H](COC(C)(C)C)NC(=O)OCc5ccccc5)[nH]c4c3)ccc2[nH]1 [OL2, benzyl ((1R)-1-(5-(2-(2-((1R)-1-(((benzyloxy)carbonyl)amino)-2-tert-butoxyethyl)-1H-benzimidazol-6-yl)ethyl)-1H-benzimidazol-2-yl)-2-tert-butoxyethyl)carbamate] |  | EC50 (Hepatitis C virus, numeric values): 20 nM
7 | C[C@@H](c1nc2cc(C#Cc3ccc4[nH]c([C@H](C)N(C)C(=O)[C@@](C)(O)c5ccccc5)nc4c3)ccc2[nH]1)N(C)C(=O)[C@@](C)(O)c1ccccc1 [Example M34] |  | EC50 (numeric values): 40 nM
8 | O=C1CC[C@@H](c2nc3cc(CCc4ccc5nc([C@@H]6CCC(=O)N6C(=O)OCc6ccccc6)[nH]c5c4)ccc3[nH]2)N1C(=O)OCc1ccccc1 [OL3, benzyl (2S)-2-(5-(2-(2-((2S)-1-(((benzyloxy)carbonyl)-5-oxo-2-pyrrolidinyl)-1H-benzimidazol-6-yl)ethyl)-1H-benzimidazol-2-yl)-5-oxo-1-pyrrolidinecarboxylate] |  | EC50 (class symbols): 100 to 999 nM
9 | CN(C)[C@@H](C(=O)N1CCC[C@H]1c1nc2cc(-c3cnc(-c4ccc5nc([C@@H]6CCCN6C(=O)[C@@H](c6ccccc6)N(C)C)[nH]c5c4)o3)ccc2[nH]1)c1ccccc1 [Example J20, (1R)-2-((2S)-2-(5-(2-(2-((2S)-1-((2R)-2-(dimethyl-amino)-2-phenylacetyl)-2-pyrrolidinyl)-1H-benzimidazol-6-yl)-1,3-oxazol-5-yl)-1H-benzimidazol-2-yl)-1-pyrrolidinyl)-N,N-dimethyl-2-oxo-1-phenyl-ethanamine] | < 4.57 | 
10 | COC(=O)N[C@H](C(=O)N1[C@@H]2C[C@@H]2C[C@H]1c1nc2cc(-c3ccc(Oc4cccc5[nH]c([C@@H]6C[C@H]7C[C@H]7N6C(=O)[C@@H](NC(=O)OC)C(C)C)nc45)cc3)ccc2[nH]1)C(C)C [Example V6, Methyl((1S)-1-(((1R,3S,5R)-3-(4-(4-(2-((1R,3S,5R)-2-((2S)-2-((methoxycarbonyl)amino)-3-methylbutanoyl)-2-azabicyclo[3.1.0]hex-3-yl)-1H-benzimidazol-5-yl)phenoxy)-1H-benzimidazol-2-yl)-2-azabicyclo[3.1.0]hex-2-yl)carbonyl)-2-methylpropyl)carbamate] | < 4.57 | 
11 | O=C(c1ccco1)N1CCC[C@H]1c1nc2ccc(C#Cc3ccc4[nH]c([C@@H]5CCCN5C(=O)[C@H]5CCCO5)nc4c3)cc2[nH]1 [Example M51, 5-((2-((2S)-1-(2-furoyl)-2-pyrrolidinyl)-1H-benzimidazol-6-yl)ethynyl)-2-((2S)-1-((2R)-tetrahydro-2-furanylcarbonyl)-2-pyrrolidinyl)-1H-benzimidazole] | < 4.57 | 
12 | C[C@@H](c1nc2cc(C#Cc3ccc4nc([C@H](C)N(C)C(=O)[C@@H](c5ccccc5)N(C)C)[nH]c4c3)ccc2[nH]1)N(C)C(=O)[C@@H](c1ccccc1)N(C)C [Example M35] |  | EC50 (class symbols): < 4.57 nM
13 | O=C(C1CC1)N1CCC[C@H]1c1nc2cc(C#Cc3ccc4nc([C@@H]5CCCN5C(=O)C5CC5)[nH]c4c3)ccc2[nH]1 [Example M4, 2-((2S)-1-(cyclopropylcarbonyl)-2-pyrrolidinyl)-5-((2-((2S)-1-(cyclopropylcarbonyl)-2-pyrrolidinyl)-1H-benzimidazol-6-yl)ethynyl)-1H-benzimidazole] | 4.57 to 99 | 
14 | COC(=O)N[C@@H](C(=O)N1CCC[C@H]1c1nc2cc(-c3cnc(-c4cccc5[nH]c([C@@H]6CCCN6C(=O)[C@H](NC(=O)OC)c6ccccc6)nc45)o3)ccc2[nH]1)c1ccccc1 [Example J6, Methyl((1R)-2-((2S)-2-(4-(5-(2-((2S)-1-((2R)-2-((methoxycarbonyl)amino)-2-phenylacetyl)-2-pyrrolidinyl)-1H-benzimidazol-5-yl)-1,3-oxazol-2-yl)-1H-benzimidazol-2-yl)-1-pyrrolidinyl)-2-oxo-1-phenylethyl)carbamate] | < 4.57 | 
15 | COC(=O)NC(C(=O)N1[C@@H]2C[C@@H]2C[C@H]1c1nc2cc(-c3ccc(Oc4cccc5[nH]c([C@@H]6C[C@H]7C[C@H]7N6C(=O)C(NC(=O)OC)c6ccccc6)nc45)cc3)ccc2[nH]1)c1ccccc1 (stereo partly drawn) [Example V10, methyl (2-((1R,3S,5R)-3-(5-(4-((2-((1R,3S,5R)-2-(((methoxycarbonyl)amino)(phenyl)acetyl)-2-azabicyclo[3.1.0]hex-3-yl)-1H-benzimidazol-4-yl)oxy)phenyl)-1H-benzimidazol-2-yl)-2-azabicyclo[3.1.0]hex-2-yl)-2-oxo-1-phenylethyl) carbamate] |  | EC50 (class symbols): < 4.57 nM
16 | CO[C@@H]1C[C@@H](c2nc3cc(C#Cc4ccc5nc([C@@H]6C[C@@H](OC)CN6C(=O)OCc6ccccc6)[nH]c5c4)ccc3[nH]2)N(C(=O)OCc2ccccc2)C1 [Example F8, benzyl (2S,4R)-2-(5-((2-((2S,4R)-1-((benzyloxy)carbonyl)-4-methoxy-2-pyrrolidinyl)-1H-benzimidazol-6-yl)ethynyl)-1H-benzimidazol-2-yl)-4-methoxy-1-pyrrolidinecarboxylate] | < 4.57 | 
17 | C[C@H](NC(=O)[C@H](O)c1ccccc1)c1nc2cc(C#Cc3ccc4[nH]c([C@H](C)NC(=O)[C@H](O)c5ccccc5)nc4c3)ccc2[nH]1 [Example M27] |  | EC50 (class symbols): < 4.57 nM
18 | COC(=O)N[C@@H](C(=O)N1CCC[C@H]1c1nc2cc(C#Cc3ccc4[nH]c([C@@H]5CCCN5C(=O)[C@H](NC(=O)OC)c5ccccc5)nc4c3)ccc2[nH]1)c1ccccc1 [Example M23, dimethyl (1,2-ethynediylbis(1H-benzimidazole-5,2-diyl(2S)-2,1-pyrrolidinediyl((1R)-2-oxo-1-phenyl-2,1-ethanediyl)))biscarbamate] | < 4.57 | 
19 | COC(=O)N[C@@H](C(=O)N(C)[C@@H](C)c1nc2cc(C#Cc3ccc4[nH]c([C@H](C)N(C)C(=O)[C@H](NC(=O)OC)c5ccccc5)nc4c3)ccc2[nH]1)c1ccccc1 [Example M36, dimethyl (1,2-ethynediylbis(1H-benzimidazole-5,2-diyl(1S)-1,1-ethanediyl(methylimino)((1R)-2-oxo-1-phenyl-2,1-ethanediyl)))biscarbamate] |  | EC50 (numeric values): 0.005 nM
20 | CC(=O)N1CCC[C@H]1c1nc2ccc(C#Cc3ccc4[nH]c([C@@H]5CCCN5C(=O)N5CCOCC5)nc4c3)cc2[nH]1 [Example M54.33, 5-((2-((2S)-1-acetyl-2-pyrrolidinyl)-1H-benzimidazol-6-yl)ethynyl)-2-((2S)-1-(4-morpholinyl-carbonyl)-2-pyrrolidinyl)-1H-benzimidazole] | 4.57 to 99 | 
21 | CC(=O)N1CCC[C@H]1c1nc2ccc(C#Cc3ccc4[nH]c([C@@H]5CCCN5C(=O)Cc5cccs5)nc4c3)cc2[nH]1 [Example M54.23, 5-((2-((2S)-1-acetyl-2-pyrrolidinyl)-1H-benzimidazol-6-yl)ethynyl)-2-((2S)-1-(2-thienylacetyl)-2-pyrrolidinyl)-1H-benzimidazole] | 4.57 to 99 | 
22 | O=C([C@H](O)c1ccccc1)N1CCC[C@H]1c1nc2cc(-c3ccc(-c4ccc5[nH]c([C@@H]6CCCN6C(=O)[C@H](O)c6ccccc6)nc5c4)o3)ccc2[nH]1 [JG2, (1R,1′R)-2,2′-(2,5-furandiylbis(1H-benzimidazole-5,2-diyl(2S)-2,1-pyrrolidinediyl))bis(2-oxo-1-phenylethanol)] | < 4.57 | 
23 | O=C(Cc1ccccc1)N1CCC[C@H]1c1nc2cc(C#CC#Cc3ccc4[nH]c([C@@H]5CCCN5C(=O)Cc5ccccc5)nc4c3)ccc2[nH]1 [Example M57, 5,5′-(1,3-butadiyne-1,4-diyl)bis(2-((2S)-1-(phenylacetyl)-2-pyrrolidinyl)-1H-benzimidazole)] | < 4.57 | 

— US7906655B2, “Hepatitis C virus inhibitors” (Bristol-Myers Squibb Company, priority 2008, dated 2011)
